Test results from patent publication US8404718B2, “Combinations of pyrazole kinase inhibitors” (Astex Therapeutics Limited, priority 2005, dated 2013).
pIC50: −log10 of the molar value.

Legend:
[1] = target: Activated CDK2/CyclinA (Homo sapiens, UniProt P24941); assay: Activated CDK2/CyclinA kinase inhibitory activity assay (IC50), Example 250A; type: biochemical
Procedure: Compounds of the invention were tested for kinase inhibitory activity using the following protocol.
The reaction is allowed to proceed for 2 to 4 hours before being stopped with an excess of ortho-phosphoric acid (5 μl at 2%).
γ^33P-ATP which remains unincorporated into the histone H1 is separated from phosphorylated histone H1 on a Millipore MAPH filter plate. The wells of the MAPH plate are wetted with 0.5% orthophosphoric acid, and then the results of the reaction are filtered with a Millipore vacuum filtration unit through the wells. Following filtration, the residue is washed twice with 200 μl of 0.5% orthophosphoric acid. Once the filters have dried, 20 μl of Microscint 20 scintillant is added, and then counted on a Packard Topcount for 30 seconds.

[2] = system: human colon carcinoma cell line HCT 116; assay: Anti-proliferative activity, Alamar Blue assay; type: cell-based; settings: 72 hours compound incubation, read-out: IC50, inhibition of cell growth, HCT 116
Procedure: The anti-proliferative activities of the combinations of the invention, as well as the individual components of the combinations, are determined by measuring the ability of the compounds to inhibition of cell growth in a number of cell lines. Inhibition of cell growth is measured using the Alamar Blue assay (Nociari, M. M, Shalev, A., Benias, P., Russo, C. Journal of Immunological Methods 1998, 213, 157-167). The method is based on the ability of viable cells to reduce resazurin to its fluorescent product resorufin. For each proliferation assay cells are plated onto 96 well plates and allowed to recover for 16 hours prior to the addition of inhibitor compounds for a further 72 hours. At the end of the incubation period 10% (v/v) Alamar Blue is added and incubated for a further 6 hours prior to determination of fluorescent product at […]. In the case of the non-proliferating cell assay cells are maintained at confluence for 96 hour prior to the addition of inhibitor compounds for a further 72 hours. The number of viable cells is determined by Alamar Blue assay as before. All cell lines are obtained from ECACC (European Collection of cell Cultures).

SMILES | pIC50 [1] | pIC50 [2]
COc1cccc(F)c1C(=O)Nc1c[nH]nc1C(=O)N[C@H]1CC[C@H](O)CC1 [Example 154] | > 4.70 | > 4.70
O=C(N[C@H]1CC[C@H](O)CC1)c1n[nH]cc1NC(=O)c1c(F)cccc1Cl [Example 155] | > 4.70 | > 4.70
COc1cscc1C(=O)Nc1c[nH]nc1C(=O)N[C@H]1CC[C@H](O)CC1 [Example 158] | > 4.70 | > 4.70
O=C(Nc1c[nH]nc1C(=O)N[C@H]1CC[C@H](O)CC1)c1cccc2c1OCCO2 [Example 159] | > 4.70 | > 4.70
O=C(Nc1c[nH]nc1C(=O)N[C@H]1CC[C@H](O)CC1)Nc1c(F)cccc1F [Example 160] | > 4.70 | > 4.00
C[N+]1([O-])CCC(NC(=O)c2n[nH]cc2NC(=O)c2c(F)cccc2F)CC1 (centres unmarked) [Example 162] | > 4.70 | > 4.70
NC[C@H]1CC[C@H](NC(=O)c2n[nH]cc2NC(=O)c2c(F)cccc2F)CC1 [Example 163] | > 4.70 | > 4.70
CS(=O)(=O)NC[C@H]1CC[C@H](NC(=O)c2n[nH]cc2NC(=O)c2c(F)cccc2F)CC1 [Example 164] | > 4.70 | > 4.70
O=C(N[C@H]1CC[C@H](N2CCOCC2)CC1)c1n[nH]cc1NC(=O)c1c(F)cccc1F [Example 167] | > 4.70 | > 4.70
O=C(Nc1c[nH]nc1C(=O)NCC1CC1)c1cccc2c1OCCO2 [Example 178] | > 4.70 | > 4.70
CC(C)(C)N1CCC(NC(=O)c2n[nH]cc2NC(=O)c2c(F)cccc2F)CC1 [Example 179] | > 4.70 | > 4.70
O=C(Nc1c[nH]nc1C(=O)NCC1CC1)c1ccc(N2CCOCC2)cc1Cl [Example 182] | > 4.70 | > 4.00
CC(C)(C)NC(=O)Nc1c[nH]nc1C(=O)NCC1CC1 [Example 184] | > 4.70 | 
O=C(N[C@@H]1CCNC1)c1n[nH]cc1NC(=O)c1c(F)cccc1F [Example 185] | > 4.70 | 
CN1CCC(NC(=O)c2n[nH]cc2NC(=O)c2c(F)cccc2Cl)CC1 [Example 186] | > 4.70 | > 4.70
CN1CCC(NC(=O)c2n[nH]cc2NC(=O)c2c(Cl)cccc2Cl)CC1 [Example 187] | > 4.70 | > 4.70

SMILES | pIC50 [1] | pIC50 [2]
Cc1ccc(C(=O)Nc2c[nH]nc2C(=O)NC2CCN(C)CC2)cc1 [Example 189] | > 4.70 | > 4.70
COc1ccccc1C(=O)Nc1c[nH]nc1C(=O)NC1CCNCC1 [Example 190] | > 4.70 | > 4.70
O=C(NC1CCNCC1)c1n[nH]cc1NC(=O)c1c(Cl)cncc1Cl [Example 194] | > 4.70 | > 4.70
O=C(Nc1c[nH]nc1C(=O)NC1CCNCC1)c1ccccc1OC(F)(F)F [Example 196] | > 4.70 | > 4.70
CCOc1ccccc1C(=O)Nc1c[nH]nc1C(=O)NC1CCNCC1 [Example 198] | > 4.70 | > 4.70
O=C(Nc1c[nH]nc1C(=O)NC1CCNCC1)c1ccccc1N1CCOCC1 [Example 199] | > 4.70 | > 4.70
O=C(Nc1c[nH]nc1C(=O)NC1CCNCC1)c1ccccc1OCc1ccccc1 [Example 200] | > 4.70 | > 4.70
O=C(Nc1c[nH]nc1C(=O)NC1CCNCC1)c1ccccc1Br [Example 201] | > 4.70 | > 4.70
COc1cccc(F)c1C(=O)Nc1c[nH]nc1C(=O)NC1CCN(C)CC1 [Example 202] | > 4.70 | > 4.70
CN1CCC(NC(=O)c2n[nH]cc2NC(=O)c2ccccc2OC(C)(C)C)CC1 [Example 203] | > 4.70 | > 4.70
COc1ccc(F)cc1C(=O)Nc1c[nH]nc1C(=O)NC1CCN(C)CC1 [Example 204] | > 4.70 | > 4.70
O=C(N[C@H]1CCCNC1)c1n[nH]cc1NC(=O)c1c(Cl)cccc1Cl [Example 208] | > 4.70 | > 4.70
COCCN1CCC(NC(=O)c2n[nH]cc2NC(=O)c2c(Cl)cccc2Cl)CC1 [Example 209] | > 4.70 | > 4.70
CO[C@H]1CC[C@H](NC(=O)c2n[nH]cc2NC(=O)c2c(Cl)cccc2Cl)CC1 [Example 210] | > 4.70 | 
CN1CCC(NC(=O)c2n[nH]cc2NC(=O)c2ccccc2Cl)CC1 [Example 211] | > 4.70 | > 4.70

Results, then the compound that gave them:

pIC50 [1] | pIC50 [2] | SMILES
> 4.70 | > 4.70 | COc1ccccc1CNC(=O)c1n[nH]cc1NC(=O)c1c(F)cccc1F [Example 96]
> 4.70 | > 4.00 | Cc1nn(C)c(C)c1CNC(=O)c1n[nH]cc1NC(=O)c1c(F)cccc1F [Example 99]
> 4.70 | > 4.70 | O=C(NCC1CCCO1)c1n[nH]cc1NC(=O)c1c(F)cccc1F (centres unmarked) [Example 100]
> 4.70 | > 4.70 | Cc1cc(CNC(=O)c2n[nH]cc2NC(=O)c2c(F)cccc2F)no1 [Example 101]
> 4.70 | > 4.70 | O=C(NCc1cccnc1)c1n[nH]cc1NC(=O)c1c(F)cccc1F [Example 103]
> 4.70 | > 4.70 | O=C(NCc1ccncc1)c1n[nH]cc1NC(=O)c1c(F)cccc1F [Example 104]
> 4.70 | > 4.70 | O=C(NCc1ccco1)c1n[nH]cc1NC(=O)c1c(F)cccc1F [Example 107]
> 4.70 | > 4.00 | CC(NC(=O)c1n[nH]cc1NC(=O)c1c(F)cccc1F)c1ccccc1 (centres unmarked) [Example 108]
> 4.70 | > 4.70 | O=C(NC1CCN(CC2CC2)CC1)c1n[nH]cc1NC(=O)c1c(F)cccc1F [Example 109]
> 4.70 | > 4.70 | O=C(NC1CCN(c2ncccn2)CC1)c1n[nH]cc1NC(=O)c1c(F)cccc1F [Example 110]
> 4.70 | > 4.70 | O=C(NCC1CCNCC1)c1n[nH]cc1NC(=O)c1c(F)cccc1F [Example 111]
> 4.70 | > 4.70 | O=C(NC1CCN(c2ccccn2)CC1)c1n[nH]cc1NC(=O)c1c(F)cccc1F [Example 112]
> 4.70 | > 4.70 | CC1CCC(NC(=O)c2n[nH]cc2NC(=O)c2c(F)cccc2F)CC1 (centres unmarked) [Example 113]
> 4.70 | > 4.70 | O=C(NC1CCN(CC(F)(F)F)CC1)c1n[nH]cc1NC(=O)c1c(F)cccc1F [Example 114]
> 4.70 | > 4.70 | O=C(NC1CCN(c2cccc(Cl)n2)CC1)c1n[nH]cc1NC(=O)c1c(F)cccc1F [Example 115]
> 4.70 | > 4.70 | O=C(N[C@H]1CC[C@H](NC2CCOCC2)CC1)c1n[nH]cc1NC(=O)c1c(F)cccc1F [Example 116]
> 4.70 | > 4.70 | CN1CCN([C@H]2CC[C@H](NC(=O)c3n[nH]cc3NC(=O)c3c(F)cccc3F)CC2)CC1 [Example 117]
> 4.70 | > 4.70 | CN1CCN([C@H]2CC[C@@H](NC(=O)c3n[nH]cc3NC(=O)c3c(F)cccc3F)CC2)CC1 [Example 118]
> 4.70 | > 4.70 | O=C(NC1CCC(CO)CC1)c1n[nH]cc1NC(=O)c1c(F)cccc1F (centres unmarked) [Example 120]
> 4.70 | > 4.70 | O=C(NC1CCC(N2CCSCC2)CC1)c1n[nH]cc1NC(=O)c1c(F)cccc1F (centres unmarked) [Example 121]
> 4.70 | > 4.70 | CN(C)[C@H]1CC[C@H](NC(=O)c2n[nH]cc2NC(=O)c2c(F)cccc2F)CC1 [Example 124]
> 4.70 | > 4.70 | COCCN1CCC(NC(=O)c2n[nH]cc2NC(=O)c2c(F)cccc2F)CC1 [Example 125]
> 4.70 | > 4.70 | O=C(N[C@H]1CC[C@H](N2CCS(=O)(=O)CC2)CC1)c1n[nH]cc1NC(=O)c1c(F)cccc1F [Example 132]
> 4.70 | > 4.70 | O=C(NC1CCN(CC2CCOC2)CC1)c1n[nH]cc1NC(=O)c1c(F)cccc1F (centres unmarked) [Example 133]
> 4.70 | > 4.70 | CC(C)(C)OC(=O)N1CCC(NC(=O)c2n[nH]cc2NC(=O)c2c(F)cc(F)cc2F)CC1 [Example 136]
> 4.70 | > 4.70 | CO[C@H]1CC[C@H](NC(=O)c2n[nH]cc2NC(=O)c2c(F)cccc2F)CC1 [Example 137]
> 4.70 | > 4.70 | O=C1CC[C@H](NC(=O)c2n[nH]cc2NC(=O)c2c(F)cccc2F)CN1 [Example 139]
> 4.70 | > 4.70 | O=C(NC1CCNCC1)c1n[nH]cc1NC(=O)c1c(F)cc(F)cc1F [Example 148]
> 4.70 | > 4.70 | O=C(N[C@H]1CCCNC1)c1n[nH]cc1NC(=O)c1c(F)cccc1F [Example 152]
> 4.70 | > 4.70 | COc1ccccc1C(=O)Nc1c[nH]nc1C(=O)N[C@H]1CC[C@H](O)CC1 [Example 153]
